In patent US12509454B2, “Thiadiazolyl derivatives” (IDEAYA Biosciences, Inc., priority 2019, dated 2025):

molecular target: Pol theta (1-899) (Homo sapiens (Human), UniProt O75417); experiment: Pol theta ATPase activity, NADH oxidation-coupled enzymatic assay; assay type: biochemical; conditions: Pol theta (1-899) 10 nM, ATP, dT50 ssDNA, absorbance 340 nm, 10-point dilution series; read-out: ATPase NADH coupling:Standard Screening:hPolQ IC50
Description: The ability of the compounds of Formula (I) to inhibit ATPase activity of Pol theta (1-899) was determined using the assay described below.
Pol Theta ATPase activity was determined by measuring the rate of ATP turn over in a NADH oxidation-coupled enzymatic assay. 10-point dilution series of compounds were used in a 384 well format for the inhibition assays. Pol theta (1-899) (10 nM) in assay buffer (20 mM Tris HCl (pH 7.80), 80 mM KCl, 10 mM MgCl2, 1 mM DTT, 0.01% BSA, 0.01% Tween, 5% glycerol) was transferred to the test wells (20 μL), except the low control wells (20 μL of assay buffer was added to the low control wells). The plate was then incubated at room temperature for 15 min. An equal volume (20 μL) of 100 μM ATP, 300 nM dT50 (single-stranded DNA (ssDNA) containing 50 thymine bases), 300 μM NADH, 6 mM PEP, 10 U/mL lactate dehydrogenase and 20 U/mL pyruvate kinase in assay buffer was added to all the test wells. The plate was then centrifuged at 1000 rpm for 1 min. The reaction was monitored for 30 min by measuring absorbance (λ=340 nm) in a Tecan Spark multimode plate reader every minute. The high control (DMSO with enzyme) with low absorbance intensity represents no inhibition of ATPase reaction while the low control (DMSO with buffer) with high absorbance intensity represents full inhibition of ATPase activity. Slope of the reaction progress curves were used to calculate the rate of ATP hydrolysis. The rates were used to determine the percent inhibition using a four-parameter inhibition model to generate IC50, Hill slope and max inhibition.

Pol theta (1-899), sequence (O75417 1-899): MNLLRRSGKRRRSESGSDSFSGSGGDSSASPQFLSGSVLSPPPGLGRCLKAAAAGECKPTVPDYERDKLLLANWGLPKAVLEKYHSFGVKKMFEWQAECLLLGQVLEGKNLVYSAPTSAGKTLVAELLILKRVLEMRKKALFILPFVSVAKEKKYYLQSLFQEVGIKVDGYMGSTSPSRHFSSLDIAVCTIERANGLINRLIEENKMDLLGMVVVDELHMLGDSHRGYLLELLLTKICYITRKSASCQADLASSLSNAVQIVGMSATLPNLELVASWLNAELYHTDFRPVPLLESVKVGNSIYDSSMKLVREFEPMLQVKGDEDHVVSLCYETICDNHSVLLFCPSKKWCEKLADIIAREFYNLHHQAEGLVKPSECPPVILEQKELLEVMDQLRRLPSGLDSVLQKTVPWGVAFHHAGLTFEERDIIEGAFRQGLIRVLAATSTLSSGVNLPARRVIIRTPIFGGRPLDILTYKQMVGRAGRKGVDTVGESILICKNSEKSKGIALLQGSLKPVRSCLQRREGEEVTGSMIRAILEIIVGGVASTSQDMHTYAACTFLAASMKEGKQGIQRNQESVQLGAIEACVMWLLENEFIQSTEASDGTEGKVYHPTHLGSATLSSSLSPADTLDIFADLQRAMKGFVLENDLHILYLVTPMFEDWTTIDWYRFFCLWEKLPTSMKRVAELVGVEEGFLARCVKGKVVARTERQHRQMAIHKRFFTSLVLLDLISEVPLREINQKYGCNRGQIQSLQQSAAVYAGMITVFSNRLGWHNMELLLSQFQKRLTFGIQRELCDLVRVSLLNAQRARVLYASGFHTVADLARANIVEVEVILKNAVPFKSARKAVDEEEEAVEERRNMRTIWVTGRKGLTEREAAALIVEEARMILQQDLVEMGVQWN

Row | Compound | IC50 [nM]
1 | NC(=O)c1cc(N2CCOCC2)c(C(=O)Nc2nnc(OCc3ccc(Cl)cc3)s2)cn1 [Example 48, N^5-(5-((4-chlorobenzyl)oxy)-1,3,4-thiadiazol-2-yl)-4-morpholinopyridine-2,5-dicarboxamide] | 200 to 500
2 | O=C(Nc1nnc(OCc2ccc(Cl)cc2)s1)c1ccncc1N1CCOCC1 [Example 59, N-(5-((4-chlorobenzyl)oxy)-1,3,4-thiadiazol-2-yl)-3-morpholinoisonicotinamide] | 200 to 500
3 | COc1ccccc1-c1ccncc1C(=O)Nc1nnc(OCC2CC2)s1 [Example 90, N-(5-(cyclopropylmethoxy)-1,3,4-thiadiazol-2-yl)-4-(2-methoxyphenyl)nicotinamide] | 500 to 1000
4 | O=C(Nc1nnc(OCc2ccc(Cl)cc2)s1)c1cccnc1-c1ccccc1Cl [Example 150, N-(5-((4-chlorobenzyl)oxy)-1,3,4-thiadiazol-2-yl)-2-(2-chlorophenyl)nicotinamide] | 200 to 500
5 | O=C(Nc1nnc(OCc2ccc(Cl)cc2)s1)c1cnccc1N1CCN(CCN2CCOCC2)C(=O)C1 [Example 83, N-[5-[(4-chlorophenyl)methoxy]-1,3,4-thiadiazol-2-yl]-4-[4-[2-(morpholin-4-yl)ethyl]-3-oxopiperazin-1-yl]pyridine-3-carboxamide] | 500 to 1000
6 | COc1ccccc1-c1cc(CO)ncc1C(=O)Nc1nnc(OCc2ccc(Cl)cn2)s1 [Example 170, N-[5-[(5-chloropyridin-2-yl)methoxy]-1,3,4-thiadiazol-2-yl]-6-(hydroxymethyl)-4-(2-methoxyphenyl)pyridine-3-carboxamide] | ≤ 200
7 | COc1cccc(-n2cncc2C(=O)Nc2nnc(OCc3ccc(Cl)cc3)s2)c1 [Example 49, N-(5-((4-chlorobenzyl)oxy)-1,3,4-thiadiazol-2-yl)-1-(3-methoxyphenyl)-1H-imidazole-5-carboxamide] | 500 to 1000
8 | O=C(Nc1nnc(OCc2ccc(F)cc2)s1)c1cccnc1N1CCOCC1 [Example 1, N-(5-((4-fluorobenzyl)oxy)-1,3,4-thiadiazol-2-yl)-2-morpholinonicotinamide] | 1000 to 10000
9 | CNC(=O)c1cc(N2CCOCC2)c(C(=O)Nc2nnc(OCc3ccc(Cl)cc3)s2)cn1 [Example 64, N^5-(5-((4-chlorobenzyl)oxy)-1,3,4-thiadiazol-2-yl)-N2-methyl-4-morpholinopyridine-2,5-dicarboxamide] | 500 to 1000
10 | CN1CCOc2c(-c3cnccc3C(=O)Nc3nnc(OCc4ccc(Cl)cc4)s3)cccc21 [Example 139, N-[5-[(4-chlorophenyl)methoxy]-1,3,4-thiadiazol-2-yl]-3-(4-methyl-2,3-dihydro-1,4-benzoxazin-8-yl)pyridine-4-carboxamide] | ≤ 200
11 | Cc1n[nH]cc1-c1cnccc1C(=O)Nc1nnc(OCc2ccc(Cl)cc2)s1 [Example 162, N-(5-((4-chlorobenzyl)oxy)-1,3,4-thiadiazol-2-yl)-3-(3-methyl-1H-pyrazol-4-yl)isonicotinamide] | ≤ 200
12 | COc1ccccc1-c1cc([C@@H](C)O)ncc1C(=O)Nc1nnc(OCc2ccc(Cl)cc2)s1 (racemic) [Example 167, N-[5-[(4-chlorophenyl)methoxy]-1,3,4-thiadiazol-2-yl]-6-(1-hydroxyethyl)-4-(2-methoxyphenyl)pyridine-3-carboxamide] | 200 to 500
13 | O=C(Nc1nnc(OCc2ccc(Cl)cc2)s1)c1cccnc1-n1cnnn1 [Example 11, N-(5-((4-chlorobenzyl)oxy)-1,3,4-thiadiazol-2-yl)-2-(1H-tetrazol-1-yl)nicotinamide] | 1000 to 10000
14 | COc1ccccc1-c1cnccc1C(=O)Nc1nnc(OCc2ccc(C3CC3)nc2)s1 [Example 101, N-[5-[(6-cyclopropylpyridin-3-yl)methoxy]-1,3,4-thiadiazol-2-yl]-3-(2-methoxyphenyl)pyridine-4-carboxamide] | ≤ 200
15 | Cc1cc(-c2ccccc2OC(F)F)c(C(=O)Nc2nnc(OCc3ccc(C4(C#N)CC4)cn3)s2)cn1 [Example 218, N-(5-[[5-(1-cyanocyclopropyl)pyridin-2-yl]methoxy]-1,3,4-thiadiazol-2-yl)-4-[2-(difluoromethoxy)phenyl]-6-methylpyridine-3-carboxamide] | ≤ 200
16 | Cc1cc(-c2c(C)n[nH]c2C)c(C(=O)Nc2nnc(OCc3ccc(Cl)cn3)s2)cn1 [Example 196, N-(5-((5-chloropyridin-2-yl)methoxy)-1,3,4-thiadiazol-2-yl)-4-(3,5-dimethyl-1H-pyrazol-4-yl)-6methylnicotinamide] | ≤ 200
17 | COc1ccccc1-c1cc(C)ncc1C(=O)Nc1nnc(OCc2cccc(F)n2)s1 [Example 211, N-[5-[(6-fluoropyridin-2-yl)methoxy]-1,3,4-thiadiazol-2-yl]-4-(2-methoxyphenyl)-6-methylpyridine-3-carboxamide] | ≤ 200
18 | O=C(Nc1nnc(OCc2ccc(Cl)cc2)s1)c1ccncc1N1C2CCC1COC2 [Example 176, N-[5-[(4-chlorophenyl)methoxy]-1,3,4-thiadiazol-2-yl]-3-[3-oxa-8-azabicyclo[3.2.1]octan-8-yl]pyridine-4-carboxamide] | ≤ 200
19 | COc1ccccc1-c1cc(C)ncc1C(=O)Nc1nnc(O[C@@H](C)c2ccc(Cl)cc2)s1 [Example 202, N-[5-[(1S)-1-(4-chlorophenyl)ethoxy]-1,3,4-thiadiazol-2-yl]-4-(2-methoxyphenyl)-6-methylpyridine-3-carboxamide] | ≤ 200
20 | N#Cc1ccc(C(=O)Nc2nnc(OCc3ccc(Cl)cn3)s2)c(N2CCOCC2)n1 [Example 32] | 200 to 500
21 | O=C(Nc1nnc(OCc2ccc(Cl)cc2)s1)c1cnncc1-c1ccccc1OC(F)F [Example 112, N-(5-((4-chlorobenzyl)oxy)-1,3,4-thiadiazol-2-yl)-5-(2-(difluoromethoxy)phenyl)pyridazine-4-carboxamide] | ≤ 200

The next lines start with the values.

Row | IC50 [nM] | Compound
22 | ≤ 200 | O=C(Nc1nnc(OCc2ccc(Cl)cc2)s1)c1ccncc1-c1cccc2[nH]ncc12 [Example 119, N-(5-((4-chlorobenzyl)oxy)-1,3,4-thiadiazol-2-yl)-3-(1H-indazol-4-yl)isonicotinamide]
23 | ≤ 200 | COc1ccc(CO)cc1-c1cc(C)ncc1C(=O)Nc1nnc(OCc2ccc(Cl)cn2)s1 [Example 200, N-(5-((5-chloropyridin-2-yl)methoxy)-1,3,4-thiadiazol-2-yl)-4-(5-(hydroxymethyl)-2-methoxyphenyl)-6-methylnicotinamide]
24 | ≤ 200 | COc1ccccc1-n1cncc1C(=O)Nc1nnc(OCc2ccc(C3CC3)cc2)s1 [Example 149, N-(5-((4-cyclopropylbenzyl)oxy)-1,3,4-thiadiazol-2-yl)-1-(2-methoxyphenyl)-1H-imidazole-5-carboxamide]
25 | ≤ 200 | CC1CNC(=O)CN1c1ncccc1C(=O)Nc1nnc(OCc2ccc(Cl)cc2)s1 (racemic) [Example 60, (R) N-(5-((4-chlorobenzyl)oxy)-1,3,4-thiadiazol-2-yl)-2-(2-methyl-5-oxopiperazin-1-yl)nicotinamide and (S) N-(5-((4-chlorobenzyl)oxy)-1,3,4-thiadiazol-2-yl)-2-(2-methyl-5-oxopiperazin-1-yl)nicotinamide]
26 | ≤ 200 | COc1ccccc1-c1cnccc1C(=O)Nc1nnc(OCc2cccc3[nH]ncc23)s1 [Example 181, N-[5-(1H-indazol-4-ylmethoxy)-1,3,4-thiadiazol-2-yl]-3-(2-methoxyphenyl)pyridine-4-carboxamide]
27 | ≤ 200 | COc1ccccc1-c1cc(CCO)ncc1C(=O)Nc1nnc(OCc2ccc(Cl)cc2)s1 [Example 166, N-(5-((4-chlorobenzyl)oxy)-1,3,4-thiadiazol-2-yl)-6-(2-hydroxyethyl)-4-(2-methoxyphenyl)nicotinamide]
28 | ≤ 200 | COc1cccc(F)c1-c1cc(C)ncc1C(=O)Nc1nnc(OCc2ccc(Cl)cn2)s1 [Example 184, N-(5-((5-chloropyridin-2-yl)methoxy)-1,3,4-thiadiazol-2-yl)-4-(2-fluoro-6-methoxyphenyl)-6-methylnicotinamide]
29 | ≤ 200 | C[C@H]1COC[C@H](C)N1c1cnccc1C(=O)Nc1nnc(OCc2ccc(Cl)cc2)s1 [Example 110, N-(5-((4-chlorobenzyl)oxy)-1,3,4-thiadiazol-2-yl)-3-((3S,5S)-3,5-dimethylmorpholino)isonicotinamide]
30 | ≤ 200 | Cc1cc(-c2ccccc2CO)c(C(=O)Nc2nnc(OCc3ccc(Cl)cn3)s2)cn1 [Example 203, N-[5-[(5-chloropyridin-2-yl)methoxy]-1,3,4-thiadiazol-2-yl]-4-[2-(hydroxymethyl)phenyl]-6-methylpyridine-3-carboxamide]
31 | ≤ 200 | COc1cccc(F)c1-c1cc(C#N)ncc1C(=O)Nc1nnc(OCc2ccc(Cl)cc2)s1 [Example 185, N-(5-((4-chlorobenzyl)oxy)-1,3,4-thiadiazol-2-yl)-6-cyano-4-(2-fluoro-6-methoxyphenyl)nicotinamide]
32 | ≤ 200 | COc1ccc(-n2cncc2C(=O)Nc2nnc(OCc3ccc(Cl)cc3)s2)c(OC)c1 [Example 31, N-(5-((4-chlorobenzyl)oxy)-1,3,4-thiadiazol-2-yl)-1-(2,4-dimethoxyphenyl)-1H-imidazole-5-carboxamide]
